Measured values as given in patent publication US20260102344A1, “METERED DOSE INHALERS AND SUSPENSION COMPOSITIONS” (Kindeva Drug Delivery L.P., priority 2021, published 2026).
≈ marks a conversion by molar mass, not a printed value. Values belong to the molecule of their own block, whether it stands above or below them.

Experiments:
Type in all cases: physicochemical
[1] = Delivered dose and fine particle mass, salbutamol sulfate in HFO-1234ze(E) with 5.0% or 15% ethanol; details: HFO-1234ze(E) suspension 1.91 mg/mL, 63-μL APTAR, mean of triplicate
Description: Each suspension was filled into FEP coated canisters, crimped with a valve, and coupled to […] actuator for testing. Fine particle mass and delivered dose were measured for each suspension.

[2] = Delivered dose and particle size measurement, salbutamol sulfate in HFO-1234ze(E); details: HFO-1234ze(E) suspension 1.91 mg/mL, nominal 100 μg/actuation, 63-μL valve, 0.4 mm actuator
Description: A first suspension included no ethanol. […] A fifth suspension included 15% ethanol by weight. […] Each suspension was filled into FEP coated canisters, crimped with a 63-μL valve and tested with a […] actuator having an exit orifice diameter of 0.4 mm for testing. The fine particle mass (FPM), median mass aerodynamic diameter (MMAD), fine particle fraction (FPF), metered dose (ex-valve), and delivered dose (ex-act) were measured for each suspension.

[3] = Aerodynamic particle size measurement, fluticasone propionate in HFO-1234ze(E); details: HFO-1234ze(E) suspension 2 mg/mL, 50-μL valve, 0.5 mm actuator
Description: Suspensions of micronized fluticasone propionate were prepared in HFO-1234ze(E). The nominal concentration of fluticasone propionate in each suspension was 2 mg/mL. A first suspension included 0% ethanol. A second suspension included 2% ethanol by weight. A third suspension included 5% ethanol by weight. A fourth suspension included 10% ethanol by weight.
Each suspension was filled into an FEP-coated canister and fitted with a 50-μL valve. The suspensions were sonicated for 10 minutes to disperse the fluticasone propionate. The suspensions were tested using a KINDEVA actuator with a 0.5 mm exit orifice diameter.
For each suspension, FPM, median mass aerodynamic diameter (MMAD), FPF, metered dose (ex-valve), and delivered dose (ex-actuator) were measured.

[4] = Fine particle fraction by Fast Screening Impactor (FSI), fluticasone propionate in HFO-1234ze(E) without ethanol; details: HFO-1234ze(E) suspension 2 mg/mL, no ethanol
Description: A suspension of micronized fluticasone propionate was prepared in HFO-1234ze(E) with no additional excipients, including ethanol. Each suspension included an amount of fluticasone propionate (2 mg/mL) to provide a nominal dose of […]. Each suspension was filled into FEP coated canisters and crimped with a metering valve and tested with a KINDEVA actuator.
When tested with KINDEVA actuators with exit orifice diameters of 0.3 mm, 0.22 mm, and 0.18 mm using a Fast Screening Impactor (FSI), it was observed that corresponding FPF of 35%, 43%, and 50% were achieved.

[5] = Saturated solubility of fluticasone propionate in HFO-1234ze(E) with ethanol; details: saturated solubility in HFO-1234ze(E), no additional excipients; for solubility: HFO-1234ze(E) propellant with ethanol, organic solvent or mixture, thermodynamic from solid
Description: The solubility of fluticasone propionate in each suspension was measured by content assay following filtration of the excess non-dissolved drug.

[6] = Saturated solubility, mometasone furoate in HFO-1234ze(E) (Example 11)
Description: Suspensions of micronized mometasone furoate were prepared in HFO-1234ze(E). […]. A second suspension included 0.5% ethanol by weight. A third suspension included 1% ethanol by weight. A fourth suspension included 2% ethanol by weight.
Devices were prepared by weighing mometasone furoate in FEP coated canisters fitted with a 50-μL valve, a Mk6s actuator, and dose counter. The valve was crimped on, and the propellant was pressure filled through the valve. The units were sonicated for 10 minutes to fully disperse the mometasone furoate. Through life dosing was tested for each suspension 3 units with the Mk6s actuator having 0.5-mm exit orifice and 0.8-mm jet length. Saturated solubility was also measured for each suspension. The results are shown in Example 10.

[7] = Mometasone solubility in HFO-1234ze(E) (Example 10)

- Fine particle fraction ([1]; ethanol 5.0%): 38%
- Fine particle fraction ([1]; ethanol 15%): 20%
- FPF (fine particle fraction) ([2]; ethanol 0% by weight): 57.5%
- FPM (fine particle mass) ([2]; ethanol 0% by weight): 45.3 μg/act
- MMAD (median mass aerodynamic diameter) ([2]; ethanol 0% by weight): 1.9 μm
- FPF (fine particle fraction) ([2]; ethanol 2% by weight): 48.5%
- FPM (fine particle mass) ([2]; ethanol 2% by weight): 45.9 μg/act
- MMAD (median mass aerodynamic diameter) ([2]; ethanol 2% by weight): 2.0 μm
- FPF (fine particle fraction) ([2]; ethanol 5% by weight): 39.1%
- FPM (fine particle mass) ([2]; ethanol 5% by weight): 36.8 μg/act
- MMAD (median mass aerodynamic diameter) ([2]; ethanol 5% by weight): 1.9 μm
- FPF (fine particle fraction) ([2]; ethanol 10% by weight): 27.6%
- FPM (fine particle mass) ([2]; ethanol 10% by weight): 25.4 μg/act
- MMAD (median mass aerodynamic diameter) ([2]; ethanol 10% by weight): 2.0 μm
- FPF (fine particle fraction) ([2]; ethanol 15% by weight): 19.6%
- FPM (fine particle mass) ([2]; ethanol 15% by weight): 18.5 μg/act
- MMAD (median mass aerodynamic diameter) ([2]; ethanol 15% by weight): 2.0 μm
Molecule: salbutamol sulfate

- FPF ([3]; ethanol 0% by weight): 60.6%
- FPM ([3]; ethanol 0% by weight): 5.3 μg/actuation
- MMAD ([3]; ethanol 0% by weight): 5.0 μm
- FPF ([3]; ethanol 2% by weight): 43.8%
- FPM ([3]; ethanol 2% by weight): 30.0 μg/actuation
- MMAD ([3]; ethanol 2% by weight): 5.4 μm
- FPF ([3]; ethanol 5% by weight): 28.9%
- FPM ([3]; ethanol 5% by weight): 27.9 μg/actuation
- MMAD ([3]; ethanol 5% by weight): 2.4 μm
- FPF ([3]; ethanol 10% by weight): 19.6%
- FPM ([3]; ethanol 10% by weight): 18.7 μg/actuation
- MMAD ([3]; ethanol 10% by weight): 2.1 μm
- FPF ([4]; actuator exit orifice 0.18 mm): 50%
- FPF ([4]; actuator exit orifice 0.22 mm): 43%
- FPF ([4]; actuator exit orifice 0.3 mm): 35%
- solubility ([5]; ethanol 0% by weight): 3.2 µg/mL (≈ 6.39 µM)
- solubility ([5]; ethanol 2% by weight): 30.3 µg/mL (≈ 60.5 µM)
- solubility ([5]; ethanol 5% by weight): 135 µg/mL (≈ 269 µM)
- Mean fluticasone propionate solubility ([5]; ethanol 1% by weight): 12.4 µg/mL
- Mean fluticasone propionate solubility ([5]; ethanol 10% by weight): 367.5 µg/mL
Molecule: CCC(=O)O[C@]1(C(=O)SCF)[C@H](C)C[C@H]2[C@@H]3C[C@H](F)C4=CC(=O)C=C[C@]4(C)[C@@]3(F)[C@@H](O)C[C@@]21C [fluticasone propionate]

- Saturated solubility ([6]; ethanol 0%): 0.8 µg/mL
- Saturated solubility ([6]; ethanol 2%): 7.6 µg/mL
- Mean mometasone solubility ([7]; ethanol 0% by weight): 0.8 µg/mL
- Mean mometasone solubility ([7]; ethanol 1% by weight): 7.6 µg/mL
Molecule: C[C@@H]1C[C@H]2[C@@H]3CCC4=CC(=O)C=C[C@]4(C)[C@@]3(Cl)[C@@H](O)C[C@]2(C)[C@@]1(OC(=O)c1ccco1)C(=O)CCl [mometasone furoate]
